Laboratory results reported in US20170334899A1, “AMINO-SUBSTITUTED ISOTHIAZOLES” (Bayer Pharma Aktiengesellschaft, priority 2014, published 2017).
Where two headings read alike, the source gives them in different places.

Columns and labels:
[1] = test system: human cervical tumor cell line HeLa (ATCC CCL-2); assay: SAC-Formation - Paclitaxel-Induced Assay; type: cell-based; details: 24 h, HeLa cells, paclitaxel 0.05 μM, test range 0.005 μM-20 μM, read-out: IC50 [mol/l] SAC-Formation - Paclitaxel-Induced Assay
Outline: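 HeLa cells incubated overnight at 37° C, then given paclitaxel (0.05 μM final) plus test compound (0.005–20 μM, 0.5% DMSO) together for 24 h at 37° C. Fixed cells stained for phospho-histone H3 Ser10 (mitotic cells) and Hoechst 33342 (cell count); imaging-derived mitotic index fitted by four-parameter Hill equation.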

[2] = biological target: T1, CDK2/CycE (Homo sapiens, UniProt P24941); assay: CDK2/CycE kinase assay (TR-FRET); type: biochemical; details: avg, read-out: CDK2 avg (IC50 [mol/l])
T1 construct: GST; purchased ProQinase GmbH (Freiburg, Germany); host or cells: insect cells (Sf9)
Outline: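 GST-tagged human CDK2 and CycE from Sf9 cells, preincubated 15 min with compound, then 25 min at 22° C. with 10 μM ATP and 0.75 μM biotinylated Rb-derived peptide (final). Phospho-substrate read by TR-FRET (anti-pRB pSer807/pSer811, Eu anti-mouse IgG, streptavidin-XL665), 665/620 nm ratio, normalised to no-inhibitor and no-enzyme controls.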

SMILES	IC50 ([1]; Homo sapiens, HeLa) [nM]	IC50 [2] [nM]	IC50 [1] [nM]
Cc1nsc(Nc2cnc(C(F)(F)F)cn2)c1C(=O)Nc1ccc(N2CCN(CCC(F)(F)F)CC2)nc1 [Example 361, 3-methyl-5-{[5-(trifluoromethyl)pyrazin-2-yl]amino}-N-{6-[4-(3,3,3-trifluoropropyl)piperazin-1-yl]pyridin-3-yl}-1,2-thiazole-4-carboxamide]	120	> 20000	–
Cc1nsc(Nc2cnc(C(F)(F)F)cn2)c1C(=O)Nc1ccc(N2CCN(CCC(F)(F)F)CC2)cn1 [Example 374, 3-methyl-5-{[5-(trifluoromethyl)pyrazin-2-yl]amino}-N-{5-[4-(3,3,3-trifluoropropyl)piperazin-1-yl]pyridin-2-yl}-1,2-thiazole-4-carboxamide]	210	> 20000	–
Cc1nsc(Nc2cncc(C(F)(F)F)n2)c1C(=O)Nc1ccc(F)c(OC2CCN(CCC(F)(F)F)CC2)c1 [Example 343, N-(4-fluoro-3-{[1-(3,3,3-trifluoropropyl)piperidin-4-yl]oxy}phenyl)-3-methyl-5-{[6-(trifluoromethyl)pyrazin-2-yl]amino}-1,2-thiazole-4-carboxamide]	210	≥ 20000	–
Cc1nsc(Nc2cnc(C(F)(F)F)cn2)c1C(=O)Nc1ccc(O[C@H]2CCCN(CC(F)F)C2)nc1 [Example 388, N-(6-{[(3S)-1-(2,2-difluoroethyl)piperidin-3-yl]oxy}pyridin-3-yl)-3-methyl-5-{[5-(trifluoromethyl)pyrazin-2-yl]amino}-1,2-thiazole-4-carboxamide]	80	> 20000	–
Cc1nsc(Nc2cnc(C(F)(F)F)cn2)c1C(=O)Nc1ccc(F)c(OCC2CCCN(CCF)C2)c1 (centres unmarked) [Example 336, N-(4-fluoro-3-{[1-(2-fluoroethyl)piperidin-3-yl]methoxy}phenyl)-3-methyl-5-{[5-(trifluoromethyl)pyrazin-2-yl]amino}-1,2-thiazole-4-carboxamide]	61	≥ 20000	–

Second part, the compound after the results:

IC50 ([1]; Homo sapiens, HeLa) [nM]	IC50 [2] [nM]	IC50 [1] [nM]	SMILES
30	> 20000	27	Cc1nsc(Nc2cnc(C(F)(F)F)cn2)c1C(=O)Nc1ccc(OCC2CCN(CC(F)(F)F)CC2(F)F)nc1 (centres unmarked) [Example 392, N-(6-{[3,3-difluoro-1-(2,2,2-trifluoroethyl)piperidin-4-yl]methoxy}pyridin-3-yl)-3-methyl-5-{[5-(trifluoromethyl)pyrazin-2-yl]amino}-1,2-thiazole-4-carboxamide]
330	> 20000	–	Cc1nsc(Nc2cnc(C(F)(F)F)cn2)c1C(=O)Nc1ccc(O[C@@H]2CCN(CC(F)(F)F)C2)nc1 [Example 380, 3-methyl-N-(6-{[(3R)-1-(2,2,2-trifluoroethyl)pyrrolidin-3-yl]oxy}pyridin-3-yl)-5-{[5-(trifluoromethyl)pyrazin-2-yl]amino}-1,2-thiazole-4-carboxamide]
180	≥ 20000	–	Cc1nsc(Nc2cnc(C(F)(F)F)cn2)c1C(=O)Nc1ccc(OC2CCCN(CCF)C2)nc1 (centres unmarked) [Example 329, N-(6-{[1-(2-fluoroethyl)piperidin-3-yl]oxy}pyridin-3-yl)-3-methyl-5-{[5-(trifluoromethyl)pyrazin-2-yl]amino}-1,2-thiazole-4-carboxamide]
